The values that follow come from PubChem BioAssay (NCI).

Test systems include HOP-62 NSCLC; COLO 205 colon; HCT-15 colon; M14 melanoma; IGROV1 ovarian; NCI-H460 lung; RXF 393 renal; UACC-62 melanoma; SF-295 CNS; MOLT-4 leukemia.
Holding throughout (assay): NCI-60 cell line screen, 48 h

Each structure is given as a SMILES string.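 Briefly, cells in 96-well plates were exposed to five compound concentrations for 48 h, and endpoints were estimated by linear interpolation. Abbreviation: GI50, concentration required for 50% inhibition of growth. TGI: concentration producing complete growth inhibition.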

For `NCCNc1ncnc2ccc(Cl)cc12`, the TGI in the experiment on HOP-62 NSCLC, with COLO 205 colon, in the experiment with HCT-15 colon, in the experiment on M14 melanoma, with IGROV1 ovarian and in the experiment with NCI-H460 lung was more than 100 µM in each case. For the same molecule, the TGI in the experiment with RXF 393 renal, with UACC-62 melanoma and in the experiment on SF-295 CNS was more than 100 µM throughout.
Regarding `CCN1C(=O)N(CC)C2C1NN=c1s/c(=C\c3cnc(C)n3C)c(=O)n12` (centres undefined), the GI50 was 3.24 µM in the experiment with MOLT-4 leukemia; 2.59 µM in the experiment on HOP-62 NSCLC; 1.63 µM in the experiment on COLO 205 colon; 3.42 µM in the experiment with HCT-15 colon; 4.37 µM in the experiment on IGROV1 ovarian; 2.67 µM in the experiment on NCI-H460 lung. Also, the GI50 is 1.2 µM in the experiment with RXF 393 renal, 1.14 µM in the experiment on UACC-62 melanoma and 1.21 µM in the experiment on SF-295 CNS. The TGI was more than 100 µM with MOLT-4 leukemia; more than 100 µM with HOP-62 NSCLC; 4.88 µM in the experiment on COLO 205 colon; more than 100 µM in the experiment on HCT-15 colon; more than 100 µM in the experiment with IGROV1 ovarian; more than 100 µM in the experiment on NCI-H460 lung. The TGI was 5.38 µM in the experiment on RXF 393 renal, 88 µM in the experiment on UACC-62 melanoma and more than 100 µM in the experiment with SF-295 CNS.
Turning to `COC(=O)C1=C(O)C(C(=O)OC)[C@@]2(O)[C@@H](C(=O)OC)C(c3ccccc3Cl)C[C@@H]1[C@@H]2C(=O)OC` (some centres undefined), the GI50 is 3.31 µM with MOLT-4 leukemia; 10.4 µM with HOP-62 NSCLC; 14.1 µM with COLO 205 colon; 4.7 µM with HCT-15 colon; 3.52 µM with IGROV1 ovarian; 10.7 µM in the experiment on NCI-H460 lung. Moreover, the results for the GI50 in the experiment with RXF 393 renal, in the experiment on UACC-62 melanoma and in the experiment with SF-295 CNS were 4.37 µM, 2.53 µM and 7.05 µM, respectively. Further, the TGI in the experiment with MOLT-4 leukemia is 20.7 µM; with HOP-62 NSCLC, 23.8 µM; in the experiment on COLO 205 colon, 31.5 µM; with HCT-15 colon, 18 µM; in the experiment with IGROV1 ovarian it was 13 µM; in the experiment on NCI-H460 lung, more than 100 µM. The TGI in the experiment on RXF 393 renal came out at 35.4 µM; with UACC-62 melanoma, 6.89 µM; with SF-295 CNS, 23.8 µM.
In the case of `CC(=O)OC1(C#N)CC2OC1C1NC21` (centres undefined), the TGI with MOLT-4 leukemia, in the experiment on HOP-62 NSCLC, with COLO 205 colon, with HCT-15 colon, with M14 melanoma and with IGROV1 ovarian was more than 100 µM throughout. In addition, the TGI in the experiment on NCI-H460 lung, in the experiment on RXF 393 renal and with UACC-62 melanoma was more than 100 µM throughout.
In the case of `Cn1c(=O)c2[nH]cnc2n(C)c1=O.[CH2-]C(Cc1cccc2cc(C(=O)O)c(=O)oc12)OC.[Hg+2].[OH-]` (centres undefined), the GI50 was 8.81 µM in the experiment on MOLT-4 leukemia; 19.2 µM in the experiment with HOP-62 NSCLC; 17.1 µM in the experiment on COLO 205 colon; 16.6 µM in the experiment with HCT-15 colon; 16.9 µM in the experiment with M14 melanoma; 17.3 µM in the experiment with IGROV1 ovarian. Moreover, the GI50 in the experiment with RXF 393 renal is 19.3 µM; in the experiment on UACC-62 melanoma, 17.3 µM; in the experiment on SF-295 CNS, 19.4 µM. Besides, the TGI was determined as 40.5 µM in the experiment with MOLT-4 leukemia; 41.8 µM with HOP-62 NSCLC; 30.9 µM in the experiment on COLO 205 colon; 30.9 µM with HCT-15 colon; 30.7 µM in the experiment with M14 melanoma; 31.4 µM in the experiment on IGROV1 ovarian. Further, the TGI in the experiment with RXF 393 renal amounted to 35.9 µM; in the experiment on UACC-62 melanoma, 31.3 µM; in the experiment on SF-295 CNS, 38 µM.
For the molecule `C(=NCCN=Cc1cccc2ccccc12)c1cccc2ccccc12`, the TGI in the experiment on MOLT-4 leukemia, with COLO 205 colon, in the experiment on HCT-15 colon, in the experiment with IGROV1 ovarian, in the experiment on NCI-H460 lung and with RXF 393 renal was more than 100 µM each time. Moreover, the TGI with UACC-62 melanoma and in the experiment with SF-295 CNS was more than 100 µM in each case.
As for `Nc1ncnc2c1ncn2COC/C=C/I`, the TGI in the experiment with MOLT-4 leukemia, in the experiment on HOP-62 NSCLC, in the experiment on COLO 205 colon, in the experiment on M14 melanoma, in the experiment with IGROV1 ovarian and in the experiment on NCI-H460 lung was more than 100 µM throughout. The TGI in the experiment on RXF 393 renal, in the experiment with UACC-62 melanoma and with SF-295 CNS was more than 100 µM each time.
In the case of `O=S1(=O)C=C(c2ccccc2)C(c2ccccc2)=C1`, the GI50 was 1.87 µM in the experiment on HOP-62 NSCLC; 1.77 µM in the experiment on COLO 205 colon; 1.53 µM in the experiment on HCT-15 colon; 1.58 µM in the experiment with M14 melanoma; 1.88 µM in the experiment with NCI-H460 lung; 1.62 µM in the experiment with RXF 393 renal. Besides, the GI50 in the experiment with UACC-62 melanoma was 1.73 µM; with SF-295 CNS it was 2.06 µM. Also, the TGI with HOP-62 NSCLC is 4.42 µM; with COLO 205 colon, 3.61 µM; with HCT-15 colon, 3.15 µM; with M14 melanoma, 3.01 µM; in the experiment on NCI-H460 lung, 4.23 µM; in the experiment on RXF 393 renal it was 3 µM. The TGI turned out to be 3.64 µM with UACC-62 melanoma and 6.3 µM with SF-295 CNS.
Take `COc1ccc2c(c1)O/C(=C\c1ccc([N+](=O)[O-])s1)C2=O`: the GI50 was 2.26 µM in the experiment with MOLT-4 leukemia; 8.11 µM in the experiment on HOP-62 NSCLC; 1.88 µM in the experiment on COLO 205 colon; 0.259 µM in the experiment with HCT-15 colon; 2.89 µM in the experiment on M14 melanoma; 1.14 µM with IGROV1 ovarian. Besides, the GI50 in the experiment with NCI-H460 lung is 2.32 µM; with RXF 393 renal, 1.85 µM. For the same molecule, the TGI in the experiment on MOLT-4 leukemia was more than 100 µM; in the experiment with HOP-62 NSCLC, more than 31.6 µM; in the experiment on COLO 205 colon, more than 100 µM; in the experiment on HCT-15 colon, 0.825 µM; with M14 melanoma, more than 100 µM; in the experiment with NCI-H460 lung, more than 100 µM. Besides, the TGI in the experiment on RXF 393 renal was more than 20.8 µM; with SF-295 CNS it was more than 47.4 µM.
Turning to `CSc1nc(-c2cccc(NC(=O)CCl)c2)c(C#N)c(=O)n1C`, the GI50 with HOP-62 NSCLC is 2.16 µM; in the experiment on COLO 205 colon, 1.7 µM; in the experiment on HCT-15 colon, 1.27 µM; in the experiment with M14 melanoma, 1.78 µM; in the experiment on IGROV1 ovarian it was 0.248 µM; in the experiment with NCI-H460 lung it was 3.16 µM. Besides, the GI50 in the experiment with RXF 393 renal is 1.54 µM; with UACC-62 melanoma, 1.5 µM; with SF-295 CNS it was 1.7 µM. Further, the TGI amounted to 4.87 µM in the experiment with HOP-62 NSCLC; 3.94 µM with COLO 205 colon; 2.88 µM in the experiment with HCT-15 colon; 5.61 µM in the experiment on M14 melanoma; 1.41 µM with IGROV1 ovarian; 11.1 µM in the experiment on NCI-H460 lung. For the same molecule, the TGI in the experiment on RXF 393 renal is 3.03 µM; with UACC-62 melanoma it was 3.73 µM; with SF-295 CNS, 3.22 µM.
